Assay results: patent publication US20080292584A1 (priority 2005, published 2008)
Where “and” joins values, the source holds several entries; their conditions need not be identical. Equal values may be shown once. Read-outs that look alike come from different tables or passages of the source.

Columns and labels:
CYP2C19 [1] = target: T1, CYP2C19 (Homo sapiens, UniProt P33261); assay: Metabolism of metaxalone by expressed recombinant human CYP2C19 at 5 or 20 pmol (Example 4); conditions: for percent turnover / % Turnover Mean / [metaxalone] Mean / % Turnover % / [metaxalone]: 60 min; for % Turnover % / [metaxalone]: single replicates, listed as Metaxalone
T1 sequence (P33261 whole entry): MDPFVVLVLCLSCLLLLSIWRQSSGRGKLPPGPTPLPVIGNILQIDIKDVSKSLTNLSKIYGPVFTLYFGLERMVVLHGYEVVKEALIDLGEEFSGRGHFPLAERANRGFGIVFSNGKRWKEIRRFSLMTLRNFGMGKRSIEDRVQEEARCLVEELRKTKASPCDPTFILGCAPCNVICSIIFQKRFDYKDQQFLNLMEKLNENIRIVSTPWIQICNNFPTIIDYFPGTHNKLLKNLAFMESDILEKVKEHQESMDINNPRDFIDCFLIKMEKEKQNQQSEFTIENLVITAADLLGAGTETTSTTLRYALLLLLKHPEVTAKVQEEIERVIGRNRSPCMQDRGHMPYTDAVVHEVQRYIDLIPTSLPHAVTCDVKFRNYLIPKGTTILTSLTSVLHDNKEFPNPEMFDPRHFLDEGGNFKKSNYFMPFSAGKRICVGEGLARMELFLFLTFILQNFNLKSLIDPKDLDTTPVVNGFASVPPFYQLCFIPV

CYP2C9 [2] = target: T2, CYP2C9 (Homo sapiens, UniProt P11712); assay: Inhibition of CYP2C9 activity in pooled human liver microsomes (tolbutamide 150 μM to 4′-methylhydroxytolbutamide); format: in vitro ADME; set-up: host or cells: cryopreserved primary human hepatocytes from three donors
T2 sequence (P11712 whole entry): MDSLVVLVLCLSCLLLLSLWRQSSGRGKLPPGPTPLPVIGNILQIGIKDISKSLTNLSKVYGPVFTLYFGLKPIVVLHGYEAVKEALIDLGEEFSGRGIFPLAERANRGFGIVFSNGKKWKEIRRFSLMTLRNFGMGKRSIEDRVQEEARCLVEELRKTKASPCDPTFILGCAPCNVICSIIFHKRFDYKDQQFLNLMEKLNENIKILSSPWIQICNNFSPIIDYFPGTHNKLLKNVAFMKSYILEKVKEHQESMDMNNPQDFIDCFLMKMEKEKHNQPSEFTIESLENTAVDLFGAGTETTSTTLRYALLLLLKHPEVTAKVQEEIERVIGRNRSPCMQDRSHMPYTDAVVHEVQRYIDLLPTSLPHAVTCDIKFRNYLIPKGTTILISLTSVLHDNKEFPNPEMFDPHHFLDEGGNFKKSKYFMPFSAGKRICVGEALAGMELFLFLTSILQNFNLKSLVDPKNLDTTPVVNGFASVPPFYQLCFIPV
Experimental: All other incubations were for 30 minutes.
Four replicates were performed.
Two replicates were performed.

CYP2E1 = CYP2E1 (Homo sapiens, UniProt P05181); assay: Metabolism of metaxalone by expressed recombinant human CYP2E1 at 5 or 20 pmol (Example 4); conditions: for percent turnover / % Turnover Mean / [metaxalone] Mean / % Turnover % / [metaxalone]: 60 min; for % Turnover % / [metaxalone]: single replicates, listed as Metaxalone
CYP2E1, sequence (P05181 whole entry): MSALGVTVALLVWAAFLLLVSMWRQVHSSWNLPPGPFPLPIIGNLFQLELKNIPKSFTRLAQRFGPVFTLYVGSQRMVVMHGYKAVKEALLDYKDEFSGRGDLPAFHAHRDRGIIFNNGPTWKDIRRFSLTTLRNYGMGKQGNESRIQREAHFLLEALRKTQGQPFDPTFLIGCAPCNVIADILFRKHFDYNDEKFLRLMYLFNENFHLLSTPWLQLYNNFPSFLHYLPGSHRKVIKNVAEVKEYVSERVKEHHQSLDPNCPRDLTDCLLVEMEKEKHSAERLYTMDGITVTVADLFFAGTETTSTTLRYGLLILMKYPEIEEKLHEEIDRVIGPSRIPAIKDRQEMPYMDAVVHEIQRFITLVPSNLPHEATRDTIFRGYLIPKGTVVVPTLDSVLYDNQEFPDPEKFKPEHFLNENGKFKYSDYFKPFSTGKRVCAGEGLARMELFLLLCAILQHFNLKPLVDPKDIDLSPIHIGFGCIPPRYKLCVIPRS

CYP2C19 [3] = target: T1, CYP2C19; assay: Chemical inhibition of metaxalone turnover in human liver microsomes, CYP2C19 inhibitor ticlopidine; conditions: 1 mg/mL HLM, 60 min, with ticlopidine; for % Turnover / % inhibition of turnover / Conc.: single replicates
Experimental: (§1) Human liver microsomes pooled from 15 individuals (male and female) (Pool HMMC-PL020; CellzDirect, Inc., In Vitro Products and Services Division) were used in some experiments of this study.
(§2) % Turnover=100−{[TA(final)]/[mean of TA(0 min)]}×100,
(§3) % Inhibition of Turnover=100{1−([TA(0 min)]−[TA(final-inhibitor)])/([TA(0 min)]−[TA(final-no inhibitor)])}.
(§4) The inhibitors or vehicle control were incubated with the pooled human liver microsomes (1 mg/mL) and NADPH (1 mM) in 0.1 M phosphate buffer, pH 7.4. […] Incubations were conducted in triplicate and terminated by addition of organic solvent. Samples were extracted and analyzed by LC-MS/MS as described above.

CYP2C9 [4] = target: T2, CYP2C9; assay: Metabolism of metaxalone by expressed recombinant human CYP2C9 (Example 1); conditions: 30 min
Experimental: Commercially available microsomes from baculovirus-infected insect cells containing singly-expressed recombinant wild-type (*1 allele) human CYP enzymes and cDNA-expressed human cytochrome p450 oxidoreductase [BD SUPERSOMES Enzymes; BD Biosciences Discovery Labware (Woburn, Mass.)] were used.
After a 5-minute pre-incubation, an NADPH regenerating system (NRS) was added to the incubation mixtures to initiate reactions, with a final incubation volume of 0.5 mL. Incubations were continued for 30 minutes, and then terminated, except for those for CYP2C19, which were incubated for 36 minutes prior to termination.
Matrix controls were performed to determine the background signal from the matrix components (microsomes (10 pmol p450), 01N Tris buffer, NRS, and 1% methanol). […] After a 5-minute pre-incubation, 2% sodium bicarbonate solution was added to the incubation mixtures. Incubation was for 30 minutes at a final volume of 0.5 mL. Matrix and metabolic negative controls were terminated by adding an equal volume of methanol. […] Analysis of samples was subsequent to storage at −70° C.

CYP2C8 = target: T3, CYP2C8 (Homo sapiens, UniProt P10632); assay: Metabolism of metaxalone by expressed recombinant human CYP2C8 at 5 or 20 pmol (Example 4); conditions: for % Turnover Mean / [metaxalone] Mean / % Turnover % / [metaxalone]: 60 min; for % Turnover % / [metaxalone]: single replicates
T3 sequence (P10632 1-490): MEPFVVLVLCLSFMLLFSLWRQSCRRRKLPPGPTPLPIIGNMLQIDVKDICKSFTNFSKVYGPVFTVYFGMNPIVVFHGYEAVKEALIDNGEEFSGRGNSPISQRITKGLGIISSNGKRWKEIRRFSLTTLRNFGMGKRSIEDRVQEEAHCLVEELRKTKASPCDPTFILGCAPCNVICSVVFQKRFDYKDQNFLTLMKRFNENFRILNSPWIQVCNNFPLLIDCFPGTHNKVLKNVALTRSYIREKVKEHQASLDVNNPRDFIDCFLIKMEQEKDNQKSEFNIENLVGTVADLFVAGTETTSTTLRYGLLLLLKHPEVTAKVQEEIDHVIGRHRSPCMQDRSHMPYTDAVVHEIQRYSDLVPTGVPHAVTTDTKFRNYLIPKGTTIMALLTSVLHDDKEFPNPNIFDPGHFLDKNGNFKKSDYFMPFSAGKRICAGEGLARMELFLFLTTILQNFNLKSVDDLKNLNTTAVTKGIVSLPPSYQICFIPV

CYP2D6 = CYP2D6 (Homo sapiens, UniProt P10635); conditions: both, pH 7.4; for Mean Conc.: 60 min; for % Turnover Mean: microsomes, 1 h
CYP2D6, sequence (P10635 whole entry): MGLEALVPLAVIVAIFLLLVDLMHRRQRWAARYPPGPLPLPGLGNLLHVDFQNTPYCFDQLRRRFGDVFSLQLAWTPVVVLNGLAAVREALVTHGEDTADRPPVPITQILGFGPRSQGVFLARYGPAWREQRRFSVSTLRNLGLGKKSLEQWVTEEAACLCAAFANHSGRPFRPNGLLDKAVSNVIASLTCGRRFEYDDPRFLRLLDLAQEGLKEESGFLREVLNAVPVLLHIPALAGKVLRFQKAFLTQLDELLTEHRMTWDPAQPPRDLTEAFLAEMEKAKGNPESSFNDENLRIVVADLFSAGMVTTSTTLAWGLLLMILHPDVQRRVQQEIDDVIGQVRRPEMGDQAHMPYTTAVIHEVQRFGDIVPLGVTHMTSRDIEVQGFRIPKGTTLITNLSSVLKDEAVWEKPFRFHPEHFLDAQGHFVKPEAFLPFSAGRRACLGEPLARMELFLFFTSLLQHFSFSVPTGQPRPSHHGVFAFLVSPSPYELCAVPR
Experimental: as §1, §2, §3, §4

[5] = 0.75 μM metaxalone, 5 pmol CYP450
[6] = 0.75 μM metaxalone, 20 pmol CYP450
[7] = 0.75 μM metaxalone, 20 pmol cyp
[8] = 7.5 μM metaxalone, 5 pmol CYP450
[9] = 7.5 μM metaxalone, 20 pmol CYP450
[10] = 0.75 μM metaxalone, 5 pmol cyp, listed as Metaxalone
[11] = 0.75 μM metaxalone, 20 pmol cyp, listed as Metaxalone
[12] = 7.5 μM metaxalone, 5 pmol cyp, listed as Metaxalone
[13] = 7.5 μM metaxalone, 20 pmol cyp, listed as Metaxalone

Cc1cc(C)cc(OCC2CNC(=O)O2)c1 (stereo not drawn) [metaxalone, 5-[(3,5-dimethylphenoxy)methyl]-2-oxazolidinone]
percent turnover (CYP2C19 [1]; [5]): 6.9% | % Turnover Mean (CYP2C19 [1]; 0.75 μM metaxalone, 5 pmol cyp): 6.9% | [metaxalone] Mean (CYP2C19 [1]; 0.75 μM metaxalone, 5 pmol cyp): 0.662 µM | % Turnover % (CYP2C19 [1]; 0.75 μM metaxalone, 5 pmol cyp): 2.2% and 7.6% and 11.0% | [metaxalone] (CYP2C19 [1]; 0.75 μM metaxalone, 5 pmol cyp): 0.696 µM and 0.658 µM and 0.634 µM | percent turnover (CYP2C19 [1]; [6]): 12.5% | % Turnover Mean (CYP2C19 [1]; [7]): 12.5% | [metaxalone] Mean (CYP2C19 [1]; [7]): 0.623 µM | % Turnover % (CYP2C19 [1]; [7]): 7.4% and 13.3% and 16.9% | [metaxalone] (CYP2C19 [1]; [7]): 0.659 µM and 0.618 µM and 0.591 µM | percent turnover (CYP2C19 [1]; [8]): 6.3% | % Turnover Mean (CYP2C19 [1]; 7.5 μM metaxalone, 5 pmol cyp): 6.3% | [metaxalone] Mean (CYP2C19 [1]; 7.5 μM metaxalone, 5 pmol cyp): 7.23 µM | % Turnover % (CYP2C19 [1]; 7.5 μM metaxalone, 5 pmol cyp): 0.25% and 7.1% and 11.6% | [metaxalone] (CYP2C19 [1]; 7.5 μM metaxalone, 5 pmol cyp): 7.69 µM and 7.17 µM and 6.82 µM | percent turnover (CYP2C19 [1]; [9]): 18.7% | % Turnover Mean (CYP2C19 [1]; 7.5 μM metaxalone, 20 pmol cyp): 18.7% | [metaxalone] Mean (CYP2C19 [1]; 7.5 μM metaxalone, 20 pmol cyp): 6.27 µM | % Turnover % (CYP2C19 [1]; 7.5 μM metaxalone, 20 pmol cyp): 20.2% and 18.0% and 17.8% | [metaxalone] (CYP2C19 [1]; 7.5 μM metaxalone, 20 pmol cyp): 6.16 µM and 6.32 µM and 6.34 µM | Substrate (CYP2C19 [1]; CYP isozyme 2C19, summary of studies): + | inhibition of CYP activity at a statistically significant level (CYP2C9 [2]; 0.3-100 μM metaxalone): no tested concentration of metaxalone inhibited activity | Inhibitor (CYP2C9 [2]; CYP isozyme 2C9, summary of studies): 0 | Percent of VC (CYP2C9 [2]; metaxalone 0.3 μM): 81.4% | Specific Activity Individual (CYP2C9 [2]; metaxalone 0.3 μM): 36.3 pmol/min/mg protein and 35.8 pmol/min/mg protein and 36.2 pmol/min/mg protein | Specific Activity Mean ± SD (CYP2C9 [2]; metaxalone 0.3 μM): 36.1 ± 0.283 pmol/min/mg protein | Percent of VC (CYP2C9 [2]; metaxalone 1 μM): 81.6% | Specific Activity Individual (CYP2C9 [2]; metaxalone 1 μM): 40.3 pmol/min/mg protein and 37.5 pmol/min/mg protein and 30.6 pmol/min/mg protein | Specific Activity Mean ± SD (CYP2C9 [2]; metaxalone 1 μM): 36.2 ± 4.98 pmol/min/mg protein | Percent of VC (CYP2C9 [2]; metaxalone 3 μM): 81.2% | Specific Activity Individual (CYP2C9 [2]; metaxalone 3 μM): 34.8 pmol/min/mg protein and 34.0 pmol/min/mg protein and 39.1 pmol/min/mg protein | Specific Activity Mean ± SD (CYP2C9 [2]; metaxalone 3 μM): 36.0 ± 2.75 pmol/min/mg protein | Percent of VC (CYP2C9 [2]; metaxalone 30 μM): 91.0% | Specific Activity Individual (CYP2C9 [2]; metaxalone 30 μM): 39.9 pmol/min/mg protein and 38.3 pmol/min/mg protein and 42.8 pmol/min/mg protein | Specific Activity Mean ± SD (CYP2C9 [2]; metaxalone 30 μM): 40.3 ± 2.24 pmol/min/mg protein | Percent of VC (CYP2C9 [2]; metaxalone 100 μM): 87.4% | Specific Activity Individual (CYP2C9 [2]; metaxalone 100 μM): 43.4 pmol/min/mg protein and 36.6 pmol/min/mg protein and 36.3 pmol/min/mg protein | Specific Activity Mean ± SD (CYP2C9 [2]; metaxalone 100 μM): 38.8 ± 4.00 pmol/min/mg protein | percent turnover (CYP2E1; [5]): 11.3% | % Turnover Mean (CYP2E1; 0.75 μM metaxalone, 5 pmol cyp): 11.3% | [metaxalone] Mean (CYP2E1; 0.75 μM metaxalone, 5 pmol cyp): 0.631 µM | % Turnover % (CYP2E1; 0.75 μM metaxalone, 5 pmol cyp): 2.7% and 15.1% and 16.3% | [metaxalone] (CYP2E1; 0.75 μM metaxalone, 5 pmol cyp): 0.693 µM and 0.604 µM and 0.596 µM | percent turnover (CYP2E1; [6]): 16.2% | % Turnover Mean (CYP2E1; [7]): 16.2% | [metaxalone] Mean (CYP2E1; [7]): 0.597 µM | % Turnover % (CYP2E1; [7]): 14.6% and 12.6% and 21.3% | [metaxalone] (CYP2E1; [7]): 0.608 µM and 0.622 µM and 0.560 µM | percent turnover (CYP2E1; [8]): 18.4% | % Turnover Mean (CYP2E1; 7.5 μM metaxalone, 5 pmol cyp): 18.4% | [metaxalone] Mean (CYP2E1; 7.5 μM metaxalone, 5 pmol cyp): 6.29 µM | % Turnover % (CYP2E1; 7.5 μM metaxalone, 5 pmol cyp): 16.9% and 16.7% and 21.7% | [metaxalone] (CYP2E1; 7.5 μM metaxalone, 5 pmol cyp): 6.41 µM and 6.42 µM and 6.04 µM | percent turnover (CYP2E1; [9]): 17.2% | % Turnover Mean (CYP2E1; 7.5 μM metaxalone, 20 pmol cyp): 17.2% | [metaxalone] Mean (CYP2E1; 7.5 μM metaxalone, 20 pmol cyp): 6.39 µM | % Turnover % (CYP2E1; 7.5 μM metaxalone, 20 pmol cyp): 18.0% and 19.0% and 14.5% | [metaxalone] (CYP2E1; 7.5 μM metaxalone, 20 pmol cyp): 6.33 µM and 6.25 µM and 6.60 µM | Substrate (CYP2E1; CYP isozyme 2E1, summary of studies): + | % Turnover Mean (CYP2C19 [3]; 0.75 μM metaxalone): 8.16% | % inhibition of turnover Mean (CYP2C19 [3]; 0.75 μM metaxalone): 72.6% | Mean Conc. (CYP2C19 [3]; 0.75 μM metaxalone): 0.709 µM | % Turnover (CYP2C19 [3]; 0.75 μM metaxalone): 9.6% and 7.5% and 7.4% | % inhibition of turnover (CYP2C19 [3]; 0.75 μM metaxalone): 67.9% and 74.7% and 75.2% | Conc. (CYP2C19 [3]; 0.75 μM metaxalone): 0.698 µM and 0.714 µM and 0.715 µM | % Turnover Mean (CYP2C19 [3]; 7.5 μM metaxalone): 1.71% | % inhibition of turnover Mean (CYP2C19 [3]; 7.5 μM metaxalone): 93.1% | Mean Conc. (CYP2C19 [3]; 7.5 μM metaxalone): 8.37 µM | % Turnover (CYP2C19 [3]; 7.5 μM metaxalone): 5.8% and 11.0% and −11.6% | % inhibition of turnover (CYP2C19 [3]; 7.5 μM metaxalone): 76.5% and 55.5% and 147% | Conc. (CYP2C19 [3]; 7.5 μM metaxalone): 8.02 µM and 7.58 µM and 9.50 µM | Metaxalone Present Adjusted Individual (CYP2C9 [4]; metaxalone 0.5 μM): 0.360 µM and 0.348 µM | Metaxalone Present Adjusted Mean ± SD (CYP2C9 [4]; metaxalone 0.5 μM): 0.355 ± 0.00608 µM | Metaxalone Present Raw (CYP2C9 [4]; metaxalone 0.5 μM): 0.18 µM and 0.1778 µM and 0.174 µM | Percent of Metabolic Negative Control Individual (CYP2C9 [4]; metaxalone 0.5 μM): 103% and 102% | Percent of Metabolic Negative Control Mean ± SD (CYP2C9 [4]; metaxalone 0.5 μM): 102 ± 1.75% | Metaxalone Present Adjusted Individual (CYP2C9 [4]; metaxalone 2.5 μM): 1.94 µM and 1.93 µM and 1.89 µM | Metaxalone Present Adjusted Mean ± SD (CYP2C9 [4]; metaxalone 2.5 μM): 1.92 ± 0.0246 µM | Metaxalone Present Raw (CYP2C9 [4]; metaxalone 2.5 μM): 0.9684 µM and 0.9659 µM and 0.946 µM | Percent of Metabolic Negative Control Individual (CYP2C9 [4]; metaxalone 2.5 μM): 101% and 100% | Percent of Metabolic Negative Control Mean ± SD (CYP2C9 [4]; metaxalone 2.5 μM): 99.7 ± 1.28% | Metaxalone Present Adjusted Individual (CYP2C9 [4]; metaxalone 25 μM): 21.3 µM and 21.6 µM and 21.5 µM | Metaxalone Present Adjusted Mean ± SD (CYP2C9 [4]; metaxalone 25 μM): 21.5 ± 0.144 µM | Metaxalone Present Raw (CYP2C9 [4]; metaxalone 25 μM): 10.66 µM and 10.8 µM and 10.73 µM | Percent of Metabolic Negative Control Individual (CYP2C9 [4]; metaxalone 25 μM): 100% and 102% and 101% | Percent of Metabolic Negative Control Mean ± SD (CYP2C9 [4]; metaxalone 25 μM): 101 ± 0.675% | % Turnover Mean (CYP2C8; 0.75 μM metaxalone, 5 pmol cyp): −9.3% | [metaxalone] Mean (CYP2C8; 0.75 μM metaxalone, 5 pmol cyp): 0.865 µM | % Turnover % (CYP2C8; [10]): −2.6% and −10.9% and −14.3% | [metaxalone] (CYP2C8; [10]): 0.812 µM and 0.877 µM and 0.905 µM | % Turnover Mean (CYP2C8; [7]): 2.9% | [metaxalone] Mean (CYP2C8; [7]): 0.768 µM | % Turnover % (CYP2C8; [11]): 0.19% and 6.1% and 2.5% | [metaxalone] (CYP2C8; [11]): 0.790 µM and 0.743 µM and 0.771 µM | % Turnover Mean (CYP2C8; 7.5 μM metaxalone, 5 pmol cyp): 3.0% | [metaxalone] Mean (CYP2C8; 7.5 μM metaxalone, 5 pmol cyp): 8.20 µM | % Turnover % (CYP2C8; 7.5 μM metaxalone, 5 pmol cyp): −1.6% | % Turnover % (CYP2C8; [12]): 0.21% | [metaxalone] (CYP2C8; [12]): 7.58 µM and 8.43 µM and 8.58 µM | % Turnover Mean (CYP2C8; 7.5 μM metaxalone, 20 pmol cyp): 9.3% | [metaxalone] Mean (CYP2C8; 7.5 μM metaxalone, 20 pmol cyp): 7.66 µM | % Turnover % (CYP2C8; [13]): 4.3% and 10.2% and 13.4% | [metaxalone] (CYP2C8; [13]): 8.09 µM and 7.59 µM and 7.31 µM | Substrate (CYP2C8; CYP isozyme 2C8, summary of studies): + | Mean Conc. (CYP2D6; 0.75 μM): 0.769 µM | Mean Conc. (CYP2D6; 7.5 μM): 7.66 µM | % Turnover Mean (CYP2D6; 0.75 μM): 0.376% | % Turnover Mean (CYP2D6; 7.5 μM): 10.0%
